These results are taken from US8088806B2 (Achillion Pharmaceuticals, Inc., priority 2005, dated 2012).

A value given as a limit tells only on which side of the number the result lay.

In the first experiment the test system is HCV replicon. Put plainly: Replicon based assay of HCV replication inhibition (NPT ELISA). In kind it is cell-based, Hepatitis C virus. To be noted: Hepatitis C virus, Huh-7, 72 h, Table I; Huh-7 HCV replicon-containing cells, three days; read-out: Activity. The method, boiled down:
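NPT (neomycin phosphotransferase) content, proportional to replicon replication, quantified by capture ELISA on day four. Before that, replicon-bearing Huh-7 cells in G418-free screening medium were exposed three days at 37° C to compound, typically six doses from 10 to 0.03 micromolar, with equal DMSO across wells.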
Turning to `Fc1ccc(-c2csc(Nc3cccc(Oc4ccccc4)c3)n2)cc1` [compound 31, 4-(4-fluorophenyl)-N-(3-phenoxyphenyl)thiazol-2-amine], the EC50 was less than 1 µM.

As to `c1cncc(-c2csc(Nc3ccc(-n4ccnc4)cc3)n2)c1` [compound 103, N-(4-(1H-imidazol-1-yl)phenyl)-4-(pyridin-3-yl)thiazol-2-amine], the EC50 was greater than 10 µM. `CCCCCOc1ccc(Nc2nc(C(=O)CBr)cs2)cc1C(F)(F)F` [compound 204, 1-(2-(3-(trifluoromethyl)-4-(pentyloxy)phenylamino)thiazol-4-yl)-2-bromoethanone]: the EC50 was less than 1 µM. `COc1ccc(-c2csc(Nc3ccc4c(c3)OCO4)n2)cc1F` [compound 169, N-(benzo[d][1,3]dioxol-5-yl)-4-(3-fluoro-4-methoxyphenyl)thiazol-2-amine]: the EC50 was greater than 10 µM. On to `N#CCc1ccc(Nc2nc(-c3cccnc3)cs2)cc1` [compound 98, 2-(4-(4-(pyridin-3-yl)thiazol-2-ylamino)phenyl)acetonitrile], for which the EC50 is greater than 10 µM. The same measure, in the same setting: the same measure for `O=C(Nc1ccc(Cl)c(Cl)c1)c1csc(-c2cccnc2)n1` [compound 125, N-(3,4-dichlorophenyl)-2-(pyridin-3-yl)thiazole-4-carboxamide]: greater than 10 µM; for `CCCCCc1ccc(Nc2nc(-c3cc(C(=O)OCC)no3)cs2)cc1` [compound 185, ethyl 5-(2-(4-pentylphenylamino)thiazol-4-yl)isoxazole-3-carboxylate]: greater than 10 µM; for `CCCCCOc1ccc(Nc2nc(-c3ccc(N4CCCC4)cc3)cs2)cc1C(F)(F)F` [compound 8, N-(3-(trifluoromethyl)-4-(pentyloxy)phenyl)-4-(4-(pyrrolidin-1-yl)phenyl)thiazol-2-amine]: less than 1 µM.

Turning to `Clc1ccccc1-c1csc(Nc2cccc(OCc3ccccc3)c2)n1` [compound 196, N-(3-(benzyloxy)phenyl)-4-(2-chlorophenyl)thiazol-2-amine], the EC50 is less than 1 µM.

Regarding `CCCCCOc1ccc(Nc2ncc(C(=O)Nc3ccc(Cl)cc3)s2)cc1C(F)(F)F` [compound 149, 2-(3-(trifluoromethyl)-4-(pentyloxy)phenylamino)-N-(4-chlorophenyl)thiazole-5-carboxamide], the EC50 is less than 1 µM. The same measure, in the same setting: in the case of `c1ccc(Cc2cccc(Nc3nc(-c4cccnc4)cs3)c2)cc1` [compound 97, N-(3-benzylphenyl)-4-(pyridin-3-yl)thiazol-2-amine] it was less than 1 µM. Same read-out and setting: the same measure for `N#Cc1cccc(Nc2nc(-c3ccc(F)cc3)cs2)c1` [compound 55, 3-(4-(4-fluorophenyl)thiazol-2-ylamino)benzonitrile]: greater than 10 µM. Still for that read-out and setting: in the case of `CCCCCOc1ccc(Nc2nc(-c3ccc(C(=O)OC)cn3)cs2)cc1C(F)(F)F` [compound 211, methyl 6-(2-(3-(trifluoromethyl)-4-(pentyloxy)phenylamino)thiazol-4-yl)pyridine-3-carboxylate] it was less than 1 µM. As to `CCCCOC(=O)c1ccc(Nc2nc(-c3cccnc3)cs2)cc1` [compound 107, butyl 4-(4-(pyridin-3-yl)thiazol-2-ylamino)benzoate], the EC50 was greater than 10 µM. On the same count and under the same terms, in the case of `CCCCCOc1ccc(Nc2nc(-c3ccc(OCC(=O)OCC)cc3)c(C)s2)cc1C(F)(F)F` [compound 139, ethyl 2-(4-(2-(3-(trifluoromethyl)-4-(pentyloxy)phenylamino)-5-methylthiazol-4-yl)phenoxy)acetate] it was less than 1 µM; in that of `CCN(CC)S(=O)(=O)c1ccc(-c2csc(Nc3ccc(Br)cc3)n2)cc1` [compound 120, N-(4-bromophenyl)-4-diethylaminosulfonyl-phenyl-2-amine], greater than 10 µM.

Staying with this experiment, now noted: Hepatitis C virus, Huh-7, 72 h, Table III; Huh-7 HCV replicon-containing cells, three days; read-out: Activity.
Consider `CCCCCOc1ccc(Nc2nc(-c3ccc(NC)nc3)cs2)cc1C(F)(F)F` [compound 535, 5-(2-(3-(trifluoromethyl)-4-(pentyloxy)phenylamino)thiazol-4-yl)-N-methylpyridin-2-amine], for which the EC50 was less than 1 µM.

Regarding `CCCCCCCOc1ccc(Nc2nc(-c3ccc[n+]([O-])c3)cs2)cc1` [compound 525], the EC50 was less than 1 µM.

As for `CCCCCOc1ccc(Nc2nc(Cc3ccc(F)c(F)c3)cs2)cc1C(F)(F)F` [compound 607, 4-(3,4-difluorobenzyl)-N-(3-(trifluoromethyl)-4-(pentyloxy)phenyl)thiazol-2-amine], the EC50 lay within 1 to 10 µM. Turning to `CCCCCCCc1nc2cc(Nc3nc(-c4cnc(OC)nc4)cs3)ccc2o1` [compound 717, 2-heptyl-N-(4-(2-methoxypyrimidin-5-yl)thiazol-2-yl)benzo[d]oxazol-5-amine], the EC50 was less than 1 µM.

The same experiment, now with this note: Hepatitis C virus, replicon based assay of HCV replication inhibition; Table II; read-out: Activity.
In the case of `CCCCCCOc1ccc(Nc2nc(-c3ccc(F)cc3)cs2)cc1` [compound 452, 4-(4-fluorophenyl)-N-(4-(hexyloxy)phenyl)thiazol-2-amine], the EC50 is less than 1 µM. Still for that read-out and setting: the same measure for `CCCCCOc1ccc(Nc2nc3c(s2)Cc2ccccc2-3)cc1C(F)(F)F` [compound 484, N-(3-(trifluoromethyl)-4-(pentyloxy)phenyl)-8H-indeno[1,2-d]thiazol-2-amine]: less than 1 µM; for `CC(C)COc1ccc(Nc2nc(-c3ccc(O)c(C(N)=O)c3)cs2)cc1C(F)(F)F` [compound 255, 2-hydroxy-5-(2-(4-isobutoxy-3-(trifluoromethyl)phenyl-amino)thiazol-4-yl)benzamide]: less than 1 µM; for `CCCCCCCOc1ccc(Nc2nc(-c3ccc(F)cc3F)cs2)cc1` [compound 423, 4-(2,4-difluorophenyl)-N-(4-(heptyloxy)phenyl)thiazol-2-amine]: less than 1 µM. Still for that read-out and setting: in the case of `CCCCCCCOc1ccc(Nc2nc(-c3ccc(F)nc3)cs2)cc1` [compound 487, 4-(6-fluoropyridin-3-yl)-N-(4-(heptyloxy)phenyl)thiazol-2-amine] it was less than 1 µM. Same read-out and setting: in the case of `CCCCCCCOc1ccc(Nc2nc(-c3ccc(OCC(=O)O)cc3)c(C)s2)cc1` [compound 425, 2-(4-(2-(4-(heptyloxy)phenylamino)-5-methylthiazol-4-yl)phenoxy)acetic acid] it was less than 1 µM; in that of `COc1ccc(-c2nc(Nc3ccc(F)cc3)sc2-c2ccc(OC)cc2)cc1` [compound 356, N-(4-fluorophenyl)-4,5-bis(4-methoxyphenyl)thiazol-2-amine], 1 to 10 µM; in that of `CCCCCOc1ccc(Nc2nc(-c3ccc(C#N)nc3)cs2)cc1C(F)(F)F` [compound 510, 5-(2-(3-(trifluoromethyl)-4-(pentyloxy)phenylamino)thia-zol-4-yl)pyridin-2-carbonitrile], less than 1 µM. `Cc1sc(Nc2ccc(OCC(C)C)c(C(F)(F)F)c2)nc1-c1ccc(CC(=O)O)cc1` [compound 246, 2-(4-(2-(4-isobutoxy-3-(trifluoromethyl)phenyl-amino)-5-methylthiazol-4-yl)phenyl)acetic acid]: the EC50 is 1 to 10 µM. The same measure, in the same setting: in the case of `CCCCCOc1ccc(Nc2nc(-c3nc4ccccc4s3)cs2)cc1C(F)(F)F` [compound 412, 4-(benzo[d]thiazol-2-yl)-N-(3-(trifluoromethyl)-4-(pentyloxy)phenyl)thiazol-2-amine] it was less than 1 µM; in that of `CCCCCCCCOc1ccc(Nc2nc(-c3ccc(C#N)nc3)cs2)cc1` [compound 512, 5-(2-(4-(octyloxy)phenylamino)thia-zol-4-yl)pyridine-2-carbonitrile], less than 1 µM; in that of `O=C1COc2ccc(-c3csc(Nc4ccc(OC5CCCC5)c(C(F)(F)F)c4)n3)cc2N1` [compound 251, 6-(2-(4-(cyclopentyloxy)-3-(trifluoromethyl)phenyl-amino)thiazol-4-yl)-2H-benzo[b][1,4]oxazin-3(4H)-one], less than 1 µM.

The same experiment, now with this note: Hepatitis C virus, replicon based assay of HCV replication inhibition; Table IV; read-out: Activity.
As for `c1ccc(Oc2ccc(Nc3nc(-c4cccnc4)cs3)cn2)cc1` [compound 752, 6-phenoxy-N-(4-(pyridin-3-yl)thiazol-2-yl)pyridin-3-amine], the EC50 was 1 to 10 µM. The same measure, in the same setting: the same measure for `CN(C)c1ccc(-c2csc(Nc3ccc(OC4CCCC4)c(C(F)(F)F)c3)n2)cn1` [compound 735, 5-(2-(4-(cyclopentyloxy)-3-(trifluoromethyl)phenylamino)thiazol-4-yl)-N,N-dimethylpyridin-2-amine]: 1 to 10 µM; for `CC(C)(C)c1ccc(Nc2nc(-c3cccnc3)cs2)cc1` [compound 892, N-(4-tert-butylphenyl)-4-(pyridin-3-yl)thiazol-2-amine]: 1 to 10 µM. Same read-out and setting: in the case of `FC(F)(F)Oc1ccc(Nc2nc(-c3cccnc3)cs2)cc1` [compound 885, 4-(pyridin-3-yl)-N-(4-(trifluoromethoxy)phenyl)thiazol-2-amine] it was 1 to 10 µM; in that of `c1ccc(-c2nc3cc(Nc4nc(-c5cccnc5)cs4)ccc3o2)cc1` [compound 736, 2-phenyl-N-(4-(pyridin-3-yl)thiazol-2-yl)benzo[d]oxazol-5-amine], less than 1 µM; in that of `CC(C)CCCOc1ccc(Nc2nc(-c3cccnc3)cs2)cc1C(F)(F)F` [compound 824, N-(4-(4-methylpentyloxy)-3-(trifluoromethyl)phenyl)-4-(pyridin-3-yl)thiazol-2-amine], less than 1 µM. The same measure, in the same setting: the same measure for `CCCCCOc1ccc(Nc2nc(-c3cccnc3)c(F)s2)cc1C(F)(F)F` [compound 950, 5-fluoro-N-(3-(trifluoromethyl)-4-(pentyloxy)phenyl)-4-(pyridin-3-yl)thiazol-2-amine]: less than 1 µM; for `CC(C)(C)OC(=O)Nc1ccc(Nc2nc(-c3cccnc3)cs2)cc1` [compound 895, tert-butyl 4-(4-(pyridin-3-yl)thiazol-2-ylamino)phenylcarbamate]: greater than 10 µM. Regarding `CCCCCCCOc1ccc(Nc2nc(-c3cccnc3)cs2)cc1C(F)(F)F` [compound 823, N-(3-(trifluoromethyl)-4-(heptyloxy)phenyl)-4-(pyridin-3-yl)thiazol-2-amine], the EC50 is less than 1 µM.
